This experiment has as its target BSA (Bos taurus, UniProt P02769). Description: BSA glycation inhibition (glucose incubation, SDS gel/PVDF blot, periodic acid-Schiff staining). It counts as biochemical. Particulars: BSA incubated with glucose and compound at 37° C. for 5 weeks; periodic acid-Schiff base staining of blot. As for the experimental part:
Compound No. 1 was tested for glycation activity according to the following protocol:
BSA was incubated in the presence of glucose and Compound No. 1 at 37° C. for 5 weeks. Aliquots of 2 μg protein were run on an SDS gel and transferred to PVDF membrane—the same procedure as for a western blot. The membrane was then processed to identify glycoprotein content by the periodic acid-Schiff base method. The positive reaction is pink, and glycation also shifts the molecular weight so the band migrates more slowly down the gel (higher position on the blot). […] Amimoguanadine was used as a control Reduced staining is an indication of glycation inhibition.

Sequence of BSA (P02769 25-607): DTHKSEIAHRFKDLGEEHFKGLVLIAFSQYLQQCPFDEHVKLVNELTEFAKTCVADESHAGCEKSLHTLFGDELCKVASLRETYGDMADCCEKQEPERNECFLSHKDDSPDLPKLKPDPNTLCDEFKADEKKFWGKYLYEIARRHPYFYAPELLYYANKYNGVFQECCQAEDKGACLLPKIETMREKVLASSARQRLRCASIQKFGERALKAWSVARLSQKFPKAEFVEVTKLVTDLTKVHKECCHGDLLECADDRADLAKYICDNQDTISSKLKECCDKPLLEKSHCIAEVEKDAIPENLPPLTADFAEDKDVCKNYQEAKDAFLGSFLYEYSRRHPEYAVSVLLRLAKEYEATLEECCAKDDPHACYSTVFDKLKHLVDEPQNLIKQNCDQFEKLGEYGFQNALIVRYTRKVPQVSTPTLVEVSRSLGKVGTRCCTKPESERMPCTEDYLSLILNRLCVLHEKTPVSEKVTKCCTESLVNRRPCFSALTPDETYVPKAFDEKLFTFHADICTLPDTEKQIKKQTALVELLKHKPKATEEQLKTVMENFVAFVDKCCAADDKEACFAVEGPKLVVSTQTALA

Take “3,3′-dichloro-1,1′-diphenyl-4,4′-diureidophenoxyisobutyric acid [Compound No. 1]”: the “glycation inhibition (reduced glycoprotein staining)” value is “found to inhibit glycation”.

These data come from patent US9040553B2, “Phenoxyisobutyric acid compounds and method of synthesis” (CELL VIABLE CORPORATION, priority 2010, dated 2015).
